# Patent publication US9815854B2, “3-(3H-imidazo[4,5-B]pyridin-2-yl)-1H-pyrazolo[3,4-C]pyridine and therapeutic uses thereof” (Samumed, LLC, priority 2014, dated 2017)
# System: Wnt activity (Sp5-Luc reporter, TCF/LEF binding sites) in SW480 colon carcinoma cells
# Assay: Sp5-Luc Wnt reporter gene screening assay in SW480 colon carcinoma cells
# Format: cell-based, human
# Conditions: not given
# Text: The screening assay for Wnt activity is described as follows. Reporter cell lines can be generated by stably transducing cancer cell lines (e.g., colon cancer) or primary cells (e.g., IEC-6 intestinal cells) with a lentiviral construct that includes a Wnt-responsive promoter driving expression of the firefly luciferase gene.
# SW480 colon carcinoma cells were transduced with a lentiviral vector expressing luciferase with a human Sp5 promoter consisting of a sequence of eight TCF/LEF binding sites. SW480 cells stably expressing the Sp5-Luc reporter gene and a hygromycin resistance gene were selected by treatment with 150 μg/ml of hygroinycin for 7 days. These stably transduced SW480 cells were expanded in cell culture and used for all further screening activities. For Sp5-Luc reporter gene assays, the cells were plated at 10,000 cells/well in 96-well plates with growth medium containing 10% fetal calf serum and incubated overnight at 37° C. and 5% CO2. Each compound was dissolved in DMSO as a 10 mM stock in standard j-vials and used to prepare compound source plates in dose-response format with 3-fold serial dilutions and a 10 mM top concentration. Compound transfer from serially diluted source plates to assay plates containing the cells was accomplished using a pintool (Multimek 96, Beckman equipped with V&P Scientific FP1S50H pins) based liquid handling protocol. This protocol used a slotted pin to transfer 50 nl of compound from a source plate well to an assay plate well containing 50 μl of cells in growth medium. […] Control wells received 50 nl of DMSO treatment for nommlization and calculating IC50 values. The treated cells were incubated at 37° C. and 5% CO2 for an additional forty-two hours. Following incubation, the growth medium was removed and 50 μl of BrightGlo luminescence reagent (Promega) was added to each well of the 96-well assay plates. The plates were placed on an orbital shaker for 5 min and then luminescence was quantified on the Victor3 (Perkin Elmer) plate reader. Readings were normalized to DMSO only treated cells, and normalized activities were utilized for IC50 calculations using the dose-response log (inhibitor) vs. response—variable slope (four parameters) nonlinear regression feature available in GraphPad Prism 5.0 or 6.0.
row,IC50 [µM],SMILES
1,> 1,"Fc1cccc(-c2ccnc3[nH]c(-c4n[nH]c5cnc(-c6ccncc6)cc45)nc23)c1 [Compound 952, -(7-(3-Fluorophenyl)-3H-imidazo[4,5-b]pyridin-2-yl)-5-(pyridin-4-yl)-1 H-pyrazolo[3,4-c]pyridine]"
2,> 10,CC(C)CC(=O)Nc1cncc(-c2cc3c(-c4nc5c(-c6cc(F)cc(OCCN(C)C)c6)ccnc5[nH]4)n[nH]c3cn2)c1 [Compound 1262]

# Same assay, conditions: Homo sapiens
row,SMILES,IC50 [µM]
1,"CC(C)C(=O)Nc1cncc(-c2cc3c(-c4nc5c(-c6ccccc6F)ccnc5[nH]4)n[nH]c3cn2)c1 [Compound 61, N-(5-(3-(7-(2-Fluorophenyl)-3H-imidazo[4,5-b]pyridin-2-yl)-1H-pyrazolo[3,4-c]pyridin-5-yl)pyridin-3-yl)isobutyramide]",0.0778
2,"c1cncc(-c2ccnc3[nH]c(-c4n[nH]c5cnc(-c6cncc(CN7CCCCC7)c6)cc45)nc23)c1 [Compound 93, 5-(5-(Piperidin-1-ylmethyl)pyridin-3-yl)-3-(7-(pyridin-3-yl)-3H-imidazo[4,5-b]pyridin-2-yl)-1H-pyrazolo[3,4-c]pyridine]",> 10
3,"CN(C)c1cncc(-c2cc3c(-c4nc5c(N6CCCCC6)ccnc5[nH]4)n[nH]c3cn2)c1 [Compound 163, N,N-Dimethyl-5-(3-(7-(piperidin-1-yl)-3H-imidazo[4,5-b]pyridin-2-yl)-1H-pyrazolo[3,4-c]pyridin-5-yl)pyridin-3-amine]",1.03
4,"CC(C)(C)C(=O)Nc1cncc(-c2cc3c(-c4nc5c(-c6ccc(F)s6)ccnc5[nH]4)n[nH]c3cn2)c1 [Compound 346, N-(5-(3-(7-(5-Fluorothiophen-2-yl)-3H-imidazo-[4,5-b]pyridin-2-yl)-1H-pyrazolo[3,4-c]pyridin-5-yl)pyridin-3-yl)pivalamide]",0.0621
5,"Fc1ccc(-c2ccnc3[nH]c(-c4n[nH]c5cnc(-c6cncc(CN7CCCC7)c6)cc45)nc23)s1 [Compound 352, 3-(7-(5-Fluorothiophen-2-yl)-3H-imidazo[4,5-b]pyridin-2-yl)-5-(5-(pyrrolidin-1-ylmethyl)pyridin-3-yl)-1H-pyrazolo[3,4-c]pyridine]",0.156
6,"CCNCc1cncc(-c2cc3c(-c4nc5c(-c6cc(F)cc(NCCN(C)C)c6)ccnc5[nH]4)n[nH]c3cn2)c1 [Compound 448, N^1-(3-(2-(5-(5-((Ethylamino)methyl)pyridin-3-yl)-1H-pyrazolo[3,4-c]pyridin-3-yl)-3H-imidazo[4,5-b]pyridin-7-yl)-5-fluorophenyl)-N^2,N^2-dimethylethane-1,2-diamine]",> 10
7,CCCCC(=O)Nc1cncc(-c2cc3c(-c4nc5c(-c6cc(F)cc(NCCN(C)C)c6)ccnc5[nH]4)n[nH]c3cn2)c1 [Compound 460],0.139
8,"Fc1cccc(-c2ccnc3[nH]c(-c4n[nH]c5cnc(C6=CCNCC6)cc45)nc23)c1 [Compound 938, 3-(7-(3-Fluorophenyl)-3H-imidazo[4,5-b]pyridin-2-yl)-5-(1,2,3,6-tetrahydropyridin-4-yl)-1H-pyrazolo[3,4-c]pyridine]",> 1
9,"CC(C)CC(=O)Nc1cncc(-c2cc3c(-c4nc5c(-c6cc(O)cc(F)c6)ccnc5[nH]4)n[nH]c3cn2)c1 [Compound 1350, N-(5-(3-(7-(3-Fluoro-5-hydroxyphenyl)-3H-imidazo[4,5-b]pyridin-2-yl)-1H-pyrazolo[3,4-c]pyridin-5-yl)pyndin-3-yl)-3-methylbutanamide]",0.253

# Second part, the molecule after the results:
row,IC50 [µM],SMILES
1,1.86,"Fc1cccc(-c2ccnc3[nH]c(-c4n[nH]c5cnc(C6CCNCC6)cc45)nc23)c1 [Compound 937, 3-(7-(3-Fluorophenyl)-3H-imidazo[4,5-b]pyridin-2-yl)-5-(piperidin-4-yl)-1H-pyrazolo[3,4-c]pyridine]"
2,0.95,"Fc1cccc(-c2ccnc3[nH]c(-c4n[nH]c5cnc(-c6cncc(OC7CCCCC7)c6)cc45)nc23)c1 [Compound 943, 5-(5-(Cyclohexyloxy)pyridin-3-yl)-3-(7-(3-fluorophenyl)-3H-imidazo[4,5-b]pyridin-2-yl)-1H-pyrazolo[3,4-c]pyridine]"
3,> 10,"Fc1cccc(-c2ccnc3[nH]c(-c4n[nH]c5cnc(-c6cncc(OC7CCNCC7)c6)cc45)nc23)c1 [Compound 944, 3-(7-(3-Fluorophenyl)-3H-imidazo[4,5-b]pyridin-2-yl)-5-(5-(piperidin-4-yloxy)pyridin-3-yl)-1H-pyrazolo[3,4-c]pyridine]"
4,> 10,"Fc1cccc(-c2ccnc3[nH]c(-c4n[nH]c5cnc(-c6cncc(OCCN7CCCC7)c6)cc45)nc23)c1 [Compound 946, 3-(7-(3-Fluorophenyl)-3H-imidazo[4,5-b]pyridin-2-yl)-5-(5-(2-(pyrrolidin-1-yl)ethoxy)pyridin-3-yl)-1H-pyrazolo[3,4-c]pyridine]"
5,4.43,"Fc1cccc(-c2ccnc3[nH]c(-c4n[nH]c5cnc(-c6cncc(OCc7ccccc7)c6)cc45)nc23)c1 [Compound 950, 5-(5-(Benzyloxy)pyridin-3-yl)-3-(7-(3-fluorophenyl)-3H-imidazo[4,5-b]pyridin-2-yl)-1H-pyrazolo[3,4-c]pyridine]"
6,> 10,"O=C(CC1CCCCC1)Nc1cncc(-c2cc3c(-c4nc5c(-c6cccc(F)c6)ccnc5[nH]4)n[nH]c3cn2)c1 [Compound 951, 2-Cyclohexyl-N-(5-(3-(7-(3-fluorophenyl)-3H-imidazo[4,5-b]pyridin-2-yl)-1H-pyrazolo[3,4-c]pyridin-5-yl)pyridin-3-yl)acetamide]"
7,0.646,"CN(C)CC(=O)Nc1cncc(-c2cc3c(-c4nc5c(-c6cccc(F)c6)ccnc5[nH]4)n[nH]c3cn2)c1 [Compound 1437, 2-(Dimethylamino)-N-(5-(3-(7-(3-fluorophenyl)-3H-imidazo[4,5-b]pyridin-2-yl)-1H-pyrazolo[3,4-c]pyridin-5-yl)pyridin-3-yl)acetamide]"
